As a reminder, the IC50 is the concentration needed to halve the response being measured.

Structures are written as SMILES.

From patent US7473790B2 (Pfizer Inc., priority 2003, dated 2009) come the findings set out here.

T1 sequence (P26663 2420-3010): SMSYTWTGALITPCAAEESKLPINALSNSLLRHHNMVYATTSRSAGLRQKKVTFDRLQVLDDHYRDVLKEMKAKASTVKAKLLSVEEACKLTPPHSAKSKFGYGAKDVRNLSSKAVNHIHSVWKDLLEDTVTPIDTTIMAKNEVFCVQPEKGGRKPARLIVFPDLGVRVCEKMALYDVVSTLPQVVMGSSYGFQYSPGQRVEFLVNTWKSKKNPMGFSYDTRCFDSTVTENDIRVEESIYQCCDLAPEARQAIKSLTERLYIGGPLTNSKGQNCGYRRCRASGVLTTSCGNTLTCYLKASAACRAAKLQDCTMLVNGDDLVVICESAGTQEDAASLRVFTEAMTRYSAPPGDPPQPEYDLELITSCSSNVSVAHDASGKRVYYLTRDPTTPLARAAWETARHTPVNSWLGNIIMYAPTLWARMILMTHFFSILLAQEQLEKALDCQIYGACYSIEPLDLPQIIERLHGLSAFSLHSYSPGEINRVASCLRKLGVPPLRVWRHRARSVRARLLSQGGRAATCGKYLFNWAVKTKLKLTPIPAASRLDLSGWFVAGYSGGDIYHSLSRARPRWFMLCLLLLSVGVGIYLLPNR

The experiment has as its target T1, HCV polymerase (Hepatitis C virus genotype 1b, UniProt P26663).
T1 construct: 2.5 pmoles (0.15 μg) HCV polymerase protein in a final volume of 75 μL
Nature of the experiment: HCV polymerase primer/template-directed transcription assay (32P-GTP incorporation, filter binding). Format: biochemical. The note with it: recombinant HCV polymerase; 30 minutes at 30° C.; concentration giving 50% inhibition of polymerase-directed transcription; read-out: IC50. As to the method:
The compounds described herein were tested for activity with HCV polymerase. Recombinant HCV polymerase was tested for its ability to perform primer/template-directed transcription in assays that contained 30 mM tris-HCl pH 7.2, 10 mM MgCl2, 20 mM NaCl, 1 mM Dithiothreitol (DTT), 0.05% Tween-20, 1% glycerol, 5 pmoles biotin-dG12 (primer), 0.5 pmoles poly(rC)300 (template), 1 μM GTP, 0.1-0.3 uCi α-^32P-GTP, and 2.5 pmoles (0.15 μg) HCV polymerase protein in a final volume of 75 μL. Reactions were initiated by addition of enzyme and incubated 30 minutes at 30° C. Reactions were stopped by addition of 33 mM EDTA, and polynucleotide products were collected by filtration through Diethylaminoethyl (DE) Filtermat papers (Wallac). Unincorporated triphosphate was removed by washing the filters with 5% dibasic sodium phosphate. The filters were counted in a Packard Tri-Lux Microbeta scintillation counter (Packard Bioscience, Meriden, Conn.). Compounds to be tested were added at various concentrations, e.g., 1 μm to 50 μm, from stocks in 10% DMSO-water (final DMSO is 1% in reaction).
IC50 values were estimated from the primary cpm data (collected in triplicate) using the formula: cpm (I)=cpm(no inhibitor)(1−([I]/([I]+IC50))). An IC50 value represents the concentration (in μM) of a compound that provides 50% inhibition of polymerase-directed transcription in the above assay. A percent inhibition value is expressed for a compound where it was impractical to calculate an IC50 value with available data. If the IC50 estimated by the above equation was less than 200 nM, it was recalculated using the following equation, which takes into account the enzyme concentration (30 nM) in the assay: cpm(I)=cpm(no inhibitor)(1−((((I+IC50+30e−9)−sqrt(((I+IC50+30e−9)^2)−4×30e−9×I)))/((2)(30e−9))). Curve fitting was performed using the program KaleidaGraph (Synergy Software, Reading, Pa.).
`CC(C)(C#N)c1ccc(CCC2(C3CCCC3)CC(=O)C(Cc3nc4ncccn4n3)C(=O)O2)cc1F` (racemic) [A(104), 2-{4-[2-(2-Cyclopentyl-4,6-dioxo-5-[1,2,4]triazolo[1,5-a]pyrimidin-2-ylmethyl-tetrahydro-pyran-2-yl)-ethyl]-2-fluoro-phenyl}-2-methyl-propionitrile]: the IC50 amounted to 8 nM.
To `Cc1cnc2nc(CC3C(=O)CC(CCc4ccc(C(C)(C)C#N)c(F)c4)(C4CCCC4)OC3=O)nn2c1` (racemic) [A(108), 2-(4-{2-[2-Cyclopentyl-5-(6-methyl-[1,2,4]triazolo[1,5-a]pyrimidin-2-ylmethyl)-4,6-dioxo-tetrahydro-pyran-2-yl]-ethyl}-2-fluoro-phenyl)-2-methyl-propionitrile] belongs 3 nM; to `Cc1cc(C)n2nc(CC3=C(O)CC(CCc4ccc(C5(C#N)CC5)c(Cl)c4)(C4CCCC4)OC3=O)nc2n1` (racemic) [A(200), 1-(2-Chloro-4-{2-[2-cyclopentyl-5-(5,7-dimethyl-[1,2,4]triazolo[1,5-a]pyrimidin-2-ylmethyl)-4-hydroxy-6-oxo-3,6-dihydro-2H-pyran-2-yl]-ethyl}-phenyl)-cyclopropanecarbonitrile], 5 nM.
For `Cc1cc(C)n2nc(CC3=C(O)CC(CCc4ccc(C5(C#N)CC5)c(Cl)c4)(C4CCCC4)OC3=O)nc2n1` (racemic) [A(201), 1-(2-Chloro-4-{2-[2-cyclopentyl-5-(5,7-dimethyl-[1,2,4]triazolo[1,5a]pyrimidin 2-ylmethyl)-4-hydroxy-6-oxo-3,6-dihydro-2H-pyran-2-yl]-ethyl}-phenyl)-cyclopropanecarbonitrile], the IC50 turned out to be 12 nM.
The value for `Cc1cnc2nc(CC3=C(O)CC(CCc4ccc(C(C)(C)C#N)c(Cl)c4)(C4CCCC4)OC3=O)nn2c1` (racemic) [A(202), 2-(2-Chloro-4-{2-[2-cyclopentyl-4-hydroxy-5-(6-methyl-[1,2,4]triazolo[1,5-a]pyrimidin-2-ylmethyl)-6-oxo-3,6-dihydro-2H-pyran-2-yl]-ethyl}-phenyl)-2-methyl-propionitrile] was 12 nM.
To `Cc1cnc2nc(CC3=C(O)CC(CCc4ccc(C(C)(C)C#N)c(Cl)c4)(C4CCCC4)OC3=O)nn2c1` (racemic) [A(203), 2-(2-Chloro-4-{2-[2-cyclopentyl-4-hydroxy-5-(6-methyl-[1,2,4]triazolo[1,5-a]pyrimidin-2-ylmethyl)-6-oxo-3,6-dihydro-2H-pyran-2-yl]-ethyl}-phenyl)-2-methyl-propionitrile] belongs 20 nM; to `CCc1cc(CCC2(C3CCCC3)CC(O)=C(Cc3nc4ncc(Cl)cn4n3)C(=O)O2)c(OC)cc1O` (racemic) [A(210), 3-[(6-chloro[1,2,4]triazolo[1,5-a]pyrimidin-2-yl)methyl]-6-cyclopentyl-6-[2-(5-ethyl-4-hydroxy-2-methoxyphenyl)ethyl]-4-hydroxy-5,6-dihydro-2H-pyran-2-one], 2 nM.
The value for `CCc1cc(CCC2(C3CCCC3)CC(O)=C(Cc3nc4ncc(Cl)cn4n3)C(=O)O2)c(OC)cc1O` (racemic) [A(211), (−)-3-[(6-chloro[1,2,4]triazolo[1,5-a]pyrimidin-2-yl)methyl]-6-cyclopentyl-6-[2-(5-ethyl-4-hydroxy-2-methoxyphenyl)ethyl]-4-hydroxy-5,6-dihydro-2H-pyran-2-one] was 4 nM; that for `CCc1cc(CCC2(C3CCCC3)CC(O)=C(Cc3nc4ncc(C)cn4n3)C(=O)O2)c(OC)cc1O` (racemic) [A(212), 3-[(6-methyl[1,2,4]triazolo[1,5-a]pyrimidin-2-yl)methyl]-6-cyclopentyl-6-[2-(5-ethyl-4-hydroxy-2-methoxyphenyl)ethyl]-4-hydroxy-5,6-dihydro-2H-pyran-2-one] was 4 nM.
Take `CCc1cc(CCC2(C3CCCC3)CC(O)=C(Cc3nc4ncc(C)cn4n3)C(=O)O2)c(OC)cc1O` (racemic) [A(213), 3-[(6-methyl[1,2,4]triazolo[1,5-a]pyrimidin-2-yl)methyl]-6-cyclopentyl-6-[2-(5-ethyl-4-hydroxy-2-methoxyphenyl)ethyl]-4-hydroxy-5,6-dihydro-2H-pyran-2-one]: the IC50 is 4.5 nM.
The value for `O=C1OC(CCc2ccc(O)c(CC(F)(F)F)c2)(C2CCCC2)CC(O)=C1Cc1nc2ncc(Cl)cn2n1` (racemic) [A(223), 3-[(6-chloro[1,2,4]triazolo[1,5-a]pyrimidin-2-yl)methyl]-6-cyclopentyl-4-hydroxy-6-{2-[4-hydroxy-3-(2,2,2-trifluoroethyl)phenyl]ethyl}-5,6-dihydro-2H-pyran-2-one] was 5 nM; that for `O=C1OC(CCc2ccc(O)c(CC(F)(F)F)c2)(C2CCCC2)CC(O)=C1Cc1nc2ncc(Cl)cn2n1` (racemic) [A(227), 3-[(6-chloro[1,2,4]triazolo[1,5-a]pyrimidin-2-yl)methyl]-6-cyclopentyl-4-hydroxy-6-{2-[4-hydroxy-3-(2,2,2-trifluoroethyl)phenyl]ethyl}-5,6-dihydro-2H-pyran-2-one] was 10 nM.
The value for `CCC(C#N)(CC)c1c(F)cc(CCC2(C3CCCC3)CC(O)=C(Cc3nc4ncc(C)cn4n3)C(=O)O2)cc1F` (racemic) [A(262), 2-(4-{2-[2-Cyclopentyl-4-hydroxy-5-(6-methyl-[1,2,4]triazolo[1,5-a]pyrimidin-2-ylmethyl)-6-oxo-3,6-dihydro-2H-pyran-2-yl]-ethyl}-2,6-difluoro-phenyl)-2-ethyl-butyronitrile] was 6 nM; that for `CCC(C#N)(CC)c1ccc(CCC2(C3CCCC3)CC(O)=C(Cc3nc4ncc(Cl)cn4n3)C(=O)O2)cc1F` (racemic) [A(265), 2-(4-{2-[5-(6-Chloro-[1,2,4]triazolo[1,5-a]pyrimidin-2-ylmethyl)-2-cyclopentyl-4-hydroxy-6-oxo-3,6-dihydro-2H-pyran-2-yl]-ethyl}-2-fluoro-phenyl)-2-ethyl-butyronitrile] was 4 nM; that for `CCc1cc(CCC2(C3CCCC3)CC(O)=C(Cc3nc4ncc(Cl)cn4n3)C(=O)O2)ccc1O` (racemic) [A(271), 3-(6-Chloro-[1,2,4]triazolo[1,5-a]pyrimidin-2-ylmethyl)-6-cyclopentyl-6-[2-(3-ethyl-4-hydroxy-phenyl)-ethyl]-4-hydroxy-5,6-dihydro-pyran-2-one] was 6 nM.
To `CCc1cc(CCC2(C3CCCC3)CC(O)=C(Cc3nc4ncc(Cl)cn4n3)C(=O)O2)ccc1O` (racemic) [A(272), 3-(6-Chloro-[1,2,4]triazolo[1,5-a]pyrimidin-2-ylmethyl)-6-cyclopentyl-6-[2-(3-ethyl-4-hydroxy-phenyl)-ethyl]-4-hydroxy-5,6-dihydro-pyran-2-one] belongs 6 nM; to `CCc1cc(CCC2(C3CCCC3)CC(O)=C(Cc3nc4nc(C)cc(C)n4n3)C(=O)O2)c(OC)cc1O` (single isomer, unassigned) [A(154), 6-Cyclopentyl-3-(5,7-dimethyl-[1,2,4]triazolo[1,5-a]pyrimidin-2-ylmethyl)-6-[2-(5-ethyl-4-hydroxy-2-methoxy-phenyl)-ethyl]-4-hydroxy-5,6-dihydro-pyran-2-one], 5 nM; to `CC(C)(C#N)c1ccc(CCC2(C3CCCC3)CC(O)=C(Cc3nc4ncc(Cl)cn4n3)C(=O)O2)cc1Cl` (single isomer, unassigned) [A(204), 2-(2-Chloro-4-{2-[5-(6-chloro-[1,2,4]triazolo[1,5-a]pyrimidin-2-ylmethyl)-2-cyclopentyl-4-hydroxy-6-oxo-3,6-dihydro-2H-pyran-2-yl]-ethyl}-phenyl)-2-methyl-propionitrile], 17 nM.
`CC(C)(C#N)c1ccc(CCC2(C3CCCC3)CC(O)=C(Cc3nc4ncc(Cl)cn4n3)C(=O)O2)cc1Cl` (single isomer, unassigned) [A(205), 2-(2-Chloro-4-{2-[5-(6-chloro-[1,2,4]triazolo[1,5-a]pyrimidin-2-ylmethyl)-2-cyclopentyl-4-hydroxy-6-oxo-3,6-dihydro-2H-pyran-2-yl]-ethyl}-phenyl)-2-methyl-propionitrile]: the IC50 was 1 nM.
To `CCc1cc(CCC2(C3CCCC3)CC(O)=C(Cc3nc4ncccn4n3)C(=O)O2)c(OC)cc1O` (single isomer, unassigned) [A(208), 6-cyclopentyl-6-[2-(5-ethyl-4-hydroxy-2-methoxyphenyl)ethyl]-4-hydroxy-3-([1,2,4]triazolo[1,5-a]pyrimidin-2-ylmethyl)-5,6-dihydro-2H-pyran-2-one] belongs 7 nM; to `CCc1cc(CCC2(C3CCCC3)CC(O)=C(Cc3nc4ncccn4n3)C(=O)O2)c(OC)cc1O` (single isomer, unassigned) [A(209), 6-cyclopentyl-6-[2-(5-ethyl-4-hydroxy-2-methoxyphenyl)ethyl]-4-hydroxy-3-([1,2,4]triazolo[1,5-a]pyrimidin-2-ylmethyl)-5,6-dihydro-2H-pyran-2-one], 50 nM.
